# “Also recorded” adds a separate entry of the source.
# Assays:
# [1] = system: delayed rectifier K^+ channel; assay: whole-cell patch clamp, delayed rectifier K^+ channel (steady-state outward K^+ current at +40 mV) in rat fungiform taste receptor cells; assay type: cell-based, rat (Sprague-Dawley); conditions: for effect on outward K^+ currents, specificity test: 10 μM, >10 min (maximal effect), significance by paired t test; for stimulation of taste receptor cells: summary statement
# Text: (§1) The effects of free fatty acids ("FFAs") on taste buds isolated from rat fungiform papillae were examined to determine if a chemosensory (i.e. non-textural) cue for fats is located in the mouth. The methods used to isolate TRCs were generally as described in Behe et al., "Membrane Currents in Taste Cells of the Rat Fungiform Papilla: Evidence for Two Types of Ca Currents and Inhibition of K Currents by Saccharin," Journal of General Physiology, Vol. 96, pp. 1061-1084 (1990); Doolin et al., "Distribution and Characterization of Functional Amiloride-sensitive Sodium Channels in Rat Tongue," Journal of General Physiology, Vol. 107. pp. 545-554 (1996); and Gilbertson et al., "Proton Currents Through Amiloride-sensitive Na^+ Channels in Isolated Hamster Taste Cells: Enhancement by Vasopressin and cAMP," Neuron, Vol. 10, pp. 931-942 (1993).
# (§2) Individual fungiform taste buds were isolated from the tongues of 2- to 5-month-old male Sprague-Dawley rats (Harlan Sprague Dawley, Indianapolis,Ind.). Animals were housed individually in polycarbonate cages with food (Purina #5001, Purina Mills, St. Louis, Mo.) provided ad lib. The room containing the rats was maintained at 21-23° C. on a 0700-1900 h light-dark cycle. All animal care and experimental procedures were in accordance with National Institutes of Health guidelines, and were approved by the Institutional Animal Care and Use Committee of the Pennington Biomedical Research Center.
# (§3) Tongues were removed from euthanized rats, and were immediately placed in ice-cold Tyrode's solution. To remove the lingual epithelium containing the taste buds from the underlying muscle layer, approximately 1.0 ml of Tyrode's solution containing 0.3 mg/ml collagenase A (Boehringer Mannheim Corp., Indianapolis, Ind.), 2.5 mg/ml dispase (grade II; Boehringer Mannheim) and 1.0 mg/ml trypsin inhibitor (type I-S; Sigma Chemical Co., St. Louis, Mo.) was injected below the epithelium. The injected tongue was placed in Ca--Mg free Tyrode's solution and bubbled with O2 for 33-35 min. The lingual epithelium was removed and pinned serosal side up, allowing access to the taste buds. Fungiform taste buds were removed individually by gentle suction with a large, firepolished pipette (~200 μm diameter), and were plated onto Cell-Tak™-coated microscope slides (Collaborative Biomedical Prod., Bedford, Mass.) fitted with an O-ring which served as a recording chamber. Once plated, cells were perfused continually with Tyrode's or various test solutions. Taste buds isolated in this manner were used for up to 6 hours without any noticeable morphological or physiological decrement.
# (§4) All chemicals were obtained from Sigma Chemical Corporation (St. Louis, Mo.) unless otherwise indicated. Normal extracellular solution (Tyrode's) contained (in mM): NaCl, 140; KCl, 5; CaCl2, 1; MgCl2, 1; HEPES (N-[2-hydroxyethyl] piperazine-N'-[2-ethanesulfonic acid), 10; glucose, 10; and sodium pyruvate, 10. The pH was adjusted to 7.40 with NaOH. In Ca^2+ --Mg^2+ free Tyrode's solution, 2 mM BAPTA (1,2-bis(2-aminophenoxy) ethane-N,N,N',N'-tetraacetic acid) (Molecular Probes, Eugene, Oreg.) replaced CaCl2 and MgCl2. Other components were identical to Tyrode's solution. Intracellular (pipette) solution contained (in mM): KCl, 140; CaCl2, 1 [free Ca^2+ was ~10^-8 M]; MgCl2, 2; HEPES, 10; EGTA (ethylene glycol-bis(β-aminoethylether)-N,N,N',N'-tetraacetic acid), 11; and ATP, 3. The pH was adjusted to 7.20 with KOH.
# (§5) Free fatty acids (FFAs) were stored below -20° C. until the day of use, when they were dissolved in warm ethanol and diluted to final working concentrations in Tyrode's solution. Final ethanol concentrations in Tyrode's were below 0.1%; the ethanol had no effect on ionic currents in any TRCs. All FFAs were applied by bath perfusion. In some experiments, FFA-containing solutions were bubbled continuously with nitrogen to retard oxygenation. […]
# [2] = system: outward K^+ currents in rat fungiform taste receptor cells; assay: whole-cell patch clamp, total outward voltage-activated currents in rat fungiform taste receptor cells; assay type: cell-based, rat (Sprague-Dawley)
# Text: as §1
# Individual fungiform taste buds were isolated from the tongues of 2- to 5-month-old male Sprague-Dawley rats (Harlan Sprague Dawley, Indianapolis,Ind.). Animals were housed individually in polycarbonate cages with food (Purina #5001, Purina Mills, St. Louis, Mo.) provided ad lib. The room containing the rats was maintained at 21-23° C. on a 0700-1900 h light-dark cycle. […]
# [3] = system: delayed rectifying K^+ channels; assay: patch clamp, delayed rectifying K^+ channels of TRCs isolated from S5B/P1 rats; assay type: cell-based; conditions: for inhibition of the delayed rectifying K^+ channels, S5B/P1 rats: TRCs from S5B/P1 rats; for sensitivity of S5B/P1 TRCs to inhibition compared with O-M TRCs: 10 μM, versus TRCs from O-M rats
# Text: (§6) To determine if there is a link between the sensitivity of TRCs to PUFAs and dietary fat preferences, the PUFA-sensitivities of TRCs using patch clamp techniques were compared on TRCs isolated from Osborne-Mendel ("O-M") rats and S5B/P1 rats, strains with different dietary preferences. O-M rats prefer fat over carbohydrate, while S5B/P1 rats prefer carbohydrate over fat. […] Rats whose TRCs were more sensitive to the fatty acids have a preference for a lower-fat diet; while rats whose TRCs are less sensitive to fatty acids seek diets that are higher in fat.
# [4] = system: delayed rectifying K^+ channels; assay: patch clamp, delayed rectifying K^+ channels of TRCs isolated from Osborne-Mendel rats; assay type: cell-based
# Text: as §6
# [5] = system: rat fungiform taste receptor cells; assay: current clamp, stimulus-induced depolarization of rat fungiform taste receptor cells; assay type: cell-based, rat (Sprague-Dawley)
# Experimental: Voltage-activated currents were recorded from individual taste receptor cells maintained in the taste bud using the whole-cell patch clamp configuration, as generally described in Hamill et al., "Improved Patch-clamp Techniques for High-resolution Current Recording from Cells and Cell-free Membrane Patches," Pflugers Arch., Vol. 391, pp. 85-100 (1981). Patch pipettes were made by pulling mlcrohematocrit tubes (Scientific Products, McGaw Park, Ill.) on a Flaming/Brown micropipette puller (model P-97; Sutter Instrument Co., Novato, Calif.), and subsequently firepolishing on a microforge (model MF-9; Narishige, Tokyo) to a resistance between 5 and 10 M.OMEGA. when filled with intracellular solution.
# Since arachidonic acid and linoleic acid inhibit K^+ currents in TRCs and these channels play crucial roles in repolarizing the cells following activity, the presence of such FFAs should affect how these cells respond during stimulus-induced activity. This prediction was tested in cells in current clamp mode during perfusion of saline, both in the absence and presence of 10 μM linoleic acid. In response to current injection (+18 pA), TRCs typically fired 0-3 action potentials, followed by a sustained depolarization lasting as long as the stimulus was present. […] On average, the sustained depolarization during current injection (18 pA) in the rat fungiform taste receptor cells was 22.4±8.5 mV during perfusion of physiological saline (n=7 cells). Addition of 10 μM linoleic acid to the perfusate of the same cells increased the mean voltage response to 36.8±9.2 mV (n=7), an increase of 64%.
# [6] = system: inwardly rectifying K^+ channels (Kir); assay: whole-cell patch clamp, inwardly rectifying K^+ channels (Kir) at -130 mV in rat fungiform taste receptor cells; assay type: cell-based, rat (Sprague-Dawley); conditions: n=5 cells
# Text: as §1, §2, §3, §4, §5
compound,measurement,setting,value
"O=S(=O)(c1cccc2cnccc12)N1CCNCC1 [HA-100, reference compound]",effect of PKC/PKA inhibitor on linoleic acid-induced inhibition of outward K^+ currents,"[1]; 25 μM, intracellular, n=6 cells",did not prevent linoleic acid-induced inhibition of outward K^+ currents
CCCCC/C=C\C/C=C\C/C=C\C/C=C\CCCC(=O)OC [arachidonic acid methyl ester],modulation of TRC K^+ currents by esterified fatty acid,[2]; arachidonic acid methyl ester: n=5 cells,ineffective
"CCCCCCCC/C=C\CCCCCCCCCCCC(=O)O [erucic acid, reference compound]","effect on outward K^+ currents, specificity test",[1],did not have significant effects
"Nc1nc2c(ncn2[C@@H]2O[C@H](COP(=O)(O)OP(O)(O)=S)[C@@H](O)[C@H]2O)c(=O)[nH]1 [guanosine 5'-O-(2-thiodiphosphate), reference compound]",effect of G protein inhibitor on FFA effects on outward currents,"[1]; 0.5 mM in the patch pipette, n=5",did not inhibit the effects of FFA on outward currents
"CCCCCCCCCCCC(=O)O [lauric acid, reference compound]","inhibition of the delayed rectifying K^+ channels, S5B/P1 rats",[3],ineffective
same,"inhibition of the delayed rectifying K^+ channels, O-M rats",[4],ineffective
CCCCC/C=C\C/C=C\CCCCCCCC(=O)O [linoleic acid],effect on stimulus-induced depolarization (in words),[5]; 10 μM linoleic acid,"significantly enhanced stimulus-induced depolarization of TRCs; also recorded: increase in the magnitude of stimulus-induced depolarization of taste receptor cells; also recorded: prolonged ""tail"" potential following termination of the stimulus"
same,sustained depolarization during current injection (mean voltage response),"[5]; 10 μM linoleic acid, 18 pA, n=7 cells, saline 22.4±8.5 mV",36.8±9.2 mV
same,activation at 10 µM,"[5]; Rattus norvegicus, 10 μM, 18 pA, n=7, read-out: increase of mean voltage response over saline",64%
same,effect of intracellular application on outward K^+ currents,"[1]; 10 μM in the pipette (intracellular) solution, up to 30 min or more",no effect
same,"effect on outward K^+ currents, specificity test",[1],significantly reduced outward K^+ currents
same,effect on outward K^+ currents on subsequent extracellular addition,"[1]; linoleic acid also in pipette, added extracellularly, n=11 cells",outward K^+ currents were inhibited
same,inhibition of outward K^+ currents in metyrapone-treated TRCs,"[1]; metyrapone 1 mM, 15 min, n=6 cells",still inhibited by linoleic acid in a quantitatively similar fashion
same,stimulation of taste receptor cells,[1],stimulate taste receptor cells
same,relative potency among the FFAs tested,[1]; trend in effects on both types of K^+ currents,the most potent of the FFAs tested
same,sensitivity of S5B/P1 TRCs to inhibition compared with O-M TRCs,[3],significantly more sensitive to inhibition
same,"inhibition of the delayed rectifying K^+ channels, S5B/P1 rats",[3],inhibited the delayed rectifying K^+ channels in a concentration-dependent manner
same,"inhibition of the delayed rectifying K^+ channels, O-M rats",[4],inhibited the delayed rectifying K^+ channels in a concentration-dependent manner
"CCCCC/C=C/C/C=C/CCCCCCCC(=O)O [linolelaidic acid, reference compound]","effect on outward K^+ currents, specificity test",[1],did not significantly affect outward K^+ currents
same,"effect on outward K^+ currents, specificity test",[1]; listed as linolelaidic,no effect on outward K^+ currents
"CC/C=C/C/C=C/C/C=C/CCCCCCCC(=O)O [linolenelaidic acid, reference compound]","effect on outward K^+ currents, specificity test",[1],no effect on outward K^+ currents; also recorded: did not significantly affect outward K^+ currents
CC(C)(C(=O)c1cccnc1)c1cccnc1 [metyrapone],inhibition at 1000 µM,"[2]; Rattus norvegicus, 1 mM, n=6 cells, read-out: inhibition of the outward current by metyrapone alone",23.8 ± 9.7%
"CCCCCCCC/C=C\CCCCCCCCCCCCCC(=O)O [nervonic acid, reference compound]","effect on outward K^+ currents, specificity test",[1],did not have significant effects
"CCCCCCCC/C=C\CCCCCCCC(=O)O [oleic acid, reference compound]",enhancement of Kir,[6],did not enhance Kir
same,"effect on outward K^+ currents, specificity test",[1],did not have significant effects
"CCCCCC/C=C\CCCCCCCC(=O)O [palmitoleic acid, reference compound]","effect on outward K^+ currents, specificity test",[1],did not have significant effects
linolenic acid,"effect on outward K^+ currents, specificity test",[1],significantly reduced outward K^+ currents
same,stimulation of taste receptor cells,[1],stimulate taste receptor cells
same,sensitivity of S5B/P1 TRCs to inhibition compared with O-M TRCs,[3],significantly more sensitive to inhibition
same,"inhibition of the delayed rectifying K^+ channels, S5B/P1 rats",[3],inhibited the delayed rectifying K^+ channels in a concentration-dependent manner
same,"inhibition of the delayed rectifying K^+ channels, O-M rats",[4],inhibited the delayed rectifying K^+ channels in a concentration-dependent manner

# From patent US6166076A, “Taste enhancing food additives” (Board of Supervisors of Louisiana State University and …, priority 1997, dated 2000)
